Where two headings read alike, the source gives them in different places. Marks after values point to notes of the source that are not given here.
Tests used:
[1] = molecular target: T1, Angiotensin-converting enzymes (ACE) from porcine kidneys (EC 3.4.15.1) (Sus scrofa, UniProt F1RRW5); assay: biochemical; details: for higher value of IC50 as compared to the IC50 of the respective aglycon / lower IC50 in relation to the respective aglycone: ACE inhibition; for higher value of IC50 as compared to the IC50 of the respective aglycon: glucoside vs aglycon; for lower IC50 in relation to the respective aglycone: glycoside vs aglycon
T1 construct: Angiotensin-converting enzymes (ACE) from porcine kidneys (EC 3.4.15.1) were purchased from Sigma-Aldrich; purchased Sigma-Aldrich (St. Louis, MO, USA); host or cells: porcine kidneys (tissue-derived enzyme)
T1 sequence (F1RRW5 34-1309): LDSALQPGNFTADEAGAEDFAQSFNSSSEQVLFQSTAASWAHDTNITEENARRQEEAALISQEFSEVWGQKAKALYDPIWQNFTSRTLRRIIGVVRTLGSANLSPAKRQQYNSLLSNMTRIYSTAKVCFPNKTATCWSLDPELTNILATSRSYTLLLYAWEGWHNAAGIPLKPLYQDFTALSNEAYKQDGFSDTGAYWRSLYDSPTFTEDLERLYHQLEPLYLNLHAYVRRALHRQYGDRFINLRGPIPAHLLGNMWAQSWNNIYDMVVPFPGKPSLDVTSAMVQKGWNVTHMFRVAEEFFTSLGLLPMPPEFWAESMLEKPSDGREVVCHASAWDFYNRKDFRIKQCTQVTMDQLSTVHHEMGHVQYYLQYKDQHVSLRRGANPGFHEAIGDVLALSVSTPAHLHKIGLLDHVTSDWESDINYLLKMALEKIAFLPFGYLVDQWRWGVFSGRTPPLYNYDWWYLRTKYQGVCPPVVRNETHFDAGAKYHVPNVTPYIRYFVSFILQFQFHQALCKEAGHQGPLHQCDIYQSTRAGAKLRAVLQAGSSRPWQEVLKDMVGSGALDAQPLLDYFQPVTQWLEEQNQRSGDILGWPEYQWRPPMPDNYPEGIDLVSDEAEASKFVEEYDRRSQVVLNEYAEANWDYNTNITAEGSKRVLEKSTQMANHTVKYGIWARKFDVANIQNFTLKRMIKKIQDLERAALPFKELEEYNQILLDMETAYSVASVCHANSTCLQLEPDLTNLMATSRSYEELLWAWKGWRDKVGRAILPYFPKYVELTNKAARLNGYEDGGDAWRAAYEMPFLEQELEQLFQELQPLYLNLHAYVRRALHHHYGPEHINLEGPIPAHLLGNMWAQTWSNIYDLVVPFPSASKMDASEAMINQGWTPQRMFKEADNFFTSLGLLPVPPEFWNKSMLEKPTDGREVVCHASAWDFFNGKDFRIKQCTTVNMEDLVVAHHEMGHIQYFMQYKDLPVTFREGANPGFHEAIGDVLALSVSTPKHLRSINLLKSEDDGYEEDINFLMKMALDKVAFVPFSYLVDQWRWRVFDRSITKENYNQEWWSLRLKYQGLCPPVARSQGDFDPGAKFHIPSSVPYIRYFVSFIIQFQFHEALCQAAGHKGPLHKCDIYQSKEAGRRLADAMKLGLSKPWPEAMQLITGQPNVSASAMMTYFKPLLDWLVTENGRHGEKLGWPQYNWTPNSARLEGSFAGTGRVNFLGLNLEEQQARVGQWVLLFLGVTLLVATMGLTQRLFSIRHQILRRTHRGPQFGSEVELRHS
Experimental: Angiotensin-converting enzymes (ACE) from porcine kidneys (EC 3.4.15.1) were purchased from Sigma-Aldrich (St. Louis, MO, USA). A three-tris-base buffer was as follows: buffer A: 300 mM Tris-base buffer (pH 8.3) with 2 mM ZnCl2; buffer B: 150 mM Tris-base buffer (pH 8,3); and buffer C: 150 mM Tris-base buffer (pH 8.3) with […] NaCl. The substrate o-aminobenzoylglycyl-p-nitorphenylalanylproline (Abz-Gly-Phe(NO2)-Pro) was obtained from BACHEM (Bubendorf, Switzerland). Standards of phenolic acids, flavonoids, glucosides, and low-molecular-weight phenolic metabolites were obtained from Sigma-Aldrich (St. Louis, MO, USA) and Extrasynthese (Genay, France). Water was purified using the Mili-Q system (Milipore, Bedford, MA, USA).
Stock solutions at 1 mM of selected phenolic acids, flavonoids, their O-glucosides, and low-molecular-weight phenolic metabolites were prepared in 80% methanol. The concentration was confirmed by a UV measurement according to Franke et al.. A wide range of concentrations of each compound was prepared by serial dilutions in deionized water to determine the IC50 value. […] The ACE inhibitory activity was obtained from three repetitions (n = 3) for each concentration.
Angiotensin-converting enzyme (ACE) activity inhibitory assay was performed according to the method of Sentandreu and Toldra. The procedure was based on the hydrolysis of the internally quenched substrate o-aminobenzoylglycyl-p-nitorphenylalanylproline (Abz-Gly-Phe(NO2)-Pro) by the reaction of ACE. The fluorescence generated by the liberation of the product (the o-aminobenzoylglycine group) was read in a microplate multiscan fluorometer. The production of fluorescence was inhibited by the presence of functional compounds with an ACE inhibitory effect. The fluorescence was measured immediately after mixing (0 min) and then after 30 min of reaction at an excitation of 365 nm and an emission of 405 nm. To calculate the % of inhibition of ACE, the following equation was used:Relative ACE activity% = 100 − (ΔRFUsample × 100/ΔRFUnegative control), where ΔRFU = RFU at time 30 – RFU at time 0.

[2] = First anodic oxidation potential by differential pulse voltammetry (DPV); assay type: physicochemical; details: for Anodic Peak Potential Epa: DPV, first anodic peak, 0.25 mM standard in 0.1 M Britton-Robinson buffer pH 6.0 in 80% methanol, glassy carbon vs Ag/AgCl, 100 mV/s; for antioxidant power class based on the first oxidation potential: classes according to Blasco et al. [47]
Experimental: A potentiostat/galvanostat G 750 (Gamry Instruments, Warminster, USA) was used for voltametric experiments. A conventional three-electrode system: a 3 mm diameter glassy carbon working electrode (BAS MF-2012), an Ag/AgCl electrode as a reference electrode, and a platinum as counter electrode, was used in the study. Differential pulse voltametric experiments were performed with phenolic acids and flavonoids prepared in a 1:1 (v/v) mixture of 500 µM standard solution and […] Britton-Robinson (B-R) buffer (pH 6.0 in 80% methanol), which also served as a supporting electrolyte. The voltametric experiments were performed at room temperature using an electrochemical cell (volume 200 µL), to which the analyzed standard solution, mixed previously with the buffer solution, was introduced. The differential pulse voltammograms were acquired in the range of −100 to 1300 mV at a scanning rate of 100 mV/s. Before use, the surface of the glassy carbon electrode was carefully polished with 0.05 µm alumina paste, ultrasonically rinsed in deionized water, and then washed with methanol. This procedure was repeated after each cycle. For test purposes, the first anodic oxidation potential was recorded (mV).

[3] = porcine kidney ACE, substrate Abz-Gly-Phe(NO2)-Pro, fluorescence after 30 min, mean ± SD, read-out: IC50 Value (ACE inhibitory activity)
[4] = IC50 Value (ACE inhibitory activity), porcine kidney ACE, substrate Abz-Gly-Phe(NO2)-Pro, fluorescence after 30 min, mean ± SD
[5] = low-molecular-weight phenolic metabolites
[6] = values of this study restated in mM in the discussion, read-out: IC50 (ACE inhibition)

IC50 [1, 3] [mM]	Anodic Peak Potential Epa [2]	SMILES	other results
0.788 ± 0.0111	961 ± 11 ^a mV	O=C(O)c1ccc(O)cc1 [4-HBA, 4-hydroxybenzoic acid]	–
0.726 ± 0.00571	574 ± 5 ^f mV	COC(=O)CCc1ccc(O)cc1 [MET, 3-(4-hydroxyphenyl)propionic methyl ester]	antioxidant power class based on the first oxidation potential [2, 5]: moderate antioxidant power (moderate antioxidant power (0.3 V < Epa < 0.8 V))
0.612 ± 0.00651	218 ± 3 ^h mV	O=C(O)CCc1ccc(O)c(O)c1 [3,4-DHPPA, 3-(3,4-dihydroxyphenyl)propionic acid]	–
0.391	819 ± 7 ^bc mV	O=C1C[C@@H](c2ccc(O)cc2)Oc2cc(O)cc(O)c21 [Naringenin]	–
2.76 ± 0.0363	731 ± 9 ^a mV	COc1cc(C(=O)O)cc(OC)c1O [Syringic acid]	–
0.679 ± 0.0077	883 ± 11 ^b mV	O=C(O)Cc1cccc(O)c1 [3-HPAA, 3-hydroxyphenylacetic acid]	antioxidant power class based on the first oxidation potential [2, 5]: weak antioxidant power (weak antioxidant power (Epa ˃ 0.8 V))
0.745 ± 0.00833	659 ± 8 ^e mV	O=C(O)CCc1ccc(O)cc1O [3-2,4-DHPPA, 3-(2,4-dihydroxyphenyl)propionic acid]	antioxidant power class based on the first oxidation potential [2, 5]: moderate antioxidant power (moderate antioxidant power (0.3 V < Epa < 0.8 V))
0.98 ± 0.0136	611 ± 6 ^c mV	COc1cc(/C=C/C(=O)O)ccc1O [Ferulic acid]	IC50 [1, 6]: 0.98 mM
0.121 ± 0.00156	330 ± 4 ^g mV	O=c1c(O)c(-c2ccc(O)c(O)c2)oc2cc(O)cc(O)c12 [Quercetin]	–
1.391 ± 0.0102	815 ± 12 ^c mV	O=C(O)Cc1ccc(O)cc1 [4-HPAA, 4-hydroxyphenylacetic acid]	antioxidant power class based on the first oxidation potential [2, 5]: weak antioxidant power (weak antioxidant power (Epa ˃ 0.8 V))
0.176 ± 0.00238	295 ± 3 ^h mV	Oc1cc(O)c2cc(O)c(-c3ccc(O)c(O)c3)[o+]c2c1 [Cyanidin]	antioxidant power class based on the first oxidation potential ([2]; flavonoids and glucosides): high antioxidant power (high antioxidant power (Ep < 0.3 V))
0.9329 ± 0.00642	781 ± 9 ^d mV	O=C(O)CCc1ccccc1O [2-HPPA, 3-(2-hydroxyphenyl)propionic acid]	antioxidant power class based on the first oxidation potential [2, 5]: moderate antioxidant power (moderate antioxidant power (0.3 V < Epa < 0.8 V))

SMILES	IC50 [1, 3] [mM]	Anodic Peak Potential Epa [2]	other results
O=c1cc(-c2ccc(OC3OC(CO)C(O)C(O)C3O)c(O)c2)oc2cc(O)cc(O)c12 (centres unmarked) [Luteolin-4′-O-glucoside]	0.0889 ± 0.00168	828 ± 5 ^b mV	higher value of IC50 as compared to the IC50 of the respective aglycon [1]: 15%
COc1cc(CC(=O)O)ccc1O [HVA, 2-(3-methoxy-4-hydroxyphenyl)acetic acid]	–	643 ± 5 ^e mV	IC50 [1, 4]: 1.46 mM; ACE inhibitory activity lower than that of reduced glutathione (GSH) ([1]; ratio to the IC50 of GSH): about 35 fold; antioxidant power class based on the first oxidation potential [2, 5]: moderate antioxidant power (moderate antioxidant power (0.3 V < Epa < 0.8 V))
N[C@@H](CCC(=O)N[C@@H](CS)C(=O)NCC(=O)O)C(=O)O [GSH, reduced glutathione, reference compound]	0.0417	–	–
O=c1c(OC2OC(CO)C(O)C(O)C2O)c(-c2ccc(O)c(O)c2)oc2cc(O)cc(O)c12 [Hyperoside, quercetin-3-O-D-galactoside]	–	307 ± 3 ^h mV	higher value of IC50 as compared to the IC50 of the respective aglycon [1]: 30%; IC50 [1, 4]: 0.1572 ± 0.00145 mM
O=C(O)c1ccc(O)c(O)c1 [Protocatechuic acid]	6.235 ± 0.042	417 ± 12 ^e mV	IC50 [1, 6]: 6.24 mM; Anodic Peak Potential Epa ([2]; listed as protocatechuic acid): 417 mV
O=C(O)c1cc(O)ccc1O [Gentisic acid]	–	622 ± 8 ^c mV	IC50 ([1]; IC50 (ACE inhibition), values of this study restated in mM in the discussion): 0.834 mM; IC50 [1, 4]: 0.834 ± 0.00926 mM
Oc1cc(O)c2cc(O)c(-c3cc(O)c(O)c(O)c3)[o+]c2c1 [Delphinidin]	–	259 ± 3 ^i mV	IC50 [1, 4]: 0.2477 ± 0.00185 mM
O=c1cc(-c2ccc(O)c(O)c2)oc2cc(OC3OC(CO)C(O)C(O)C3O)cc(O)c12 (centres unmarked) [Luteolin-7-O-glucoside]	–	445 ± 3 ^e mV	lower IC50 in relation to the respective aglycone [1]: 20%; IC50 [1, 4]: 0.0615 ± 0.00162 mM
O=C1CC(c2ccc(O)cc2)Oc2cc(OC3OC(CO)C(O)C(O)C3O)cc(O)c21 (centres unmarked) [Naringenin-7-O-glucoside]	0.3572 ± 0.00199	830 ± 8 ^ab mV	lower IC50 in relation to the respective aglycone [1]: 9%
COc1cc(/C=C/C(=O)O)cc(OC)c1O [Sinapic acid]	–	618 ± 7 ^c mV	IC50 [1, 4]: 0.493 ± 0.00614 mM
OCC1OC(Oc2cc3c(O)cc(O)cc3[o+]c2-c2ccc(O)cc2)C(O)C(O)C1O (centres unmarked) [Pelargonidin-3-O-glucoside]	0.3769 ± 0.00261	473 ± 5 ^d mV	higher value of IC50 as compared to the IC50 of the respective aglycon [1]: 29%
OCC1OC(Oc2cc3c(O)cc(O)cc3[o+]c2-c2cc(O)c(O)c(O)c2)C(O)C(O)C1O (centres unmarked) [Delphinidin-3-O-glucoside]	0.2088 ± 0.00133	453 ± 4 ^e mV	lower IC50 in relation to the respective aglycone [1]: 16%

Reference: PMC12298876, “Angiotensin-Converting Enzyme Inhibitory Activity of Selected Phenolic Acids, Flavonoids, Their O-Glucosides, and Low-Molecular-Weight Phenolic Metabolites in Relation to Their Oxidation Potentials” (Metabolites, 2025)
